How the values were obtained:
[1] = tested on: isolated rat bladder strips (smooth muscle); experiment: Inhibition of contractions in isolated rat bladder strips; set-up: species or system Sprague-Dawley rat; settings: 15 mM KCl-enhanced contractions; for IC50: 0.5 h, 30 minute challenge, ± spread; for inhibition at 30 µM: read-out: Percent inhibition at 30 μM (footnote a)
Procedure: The smooth muscle relaxing activity of the compounds of this invention was established in accordance with standard pharmaceutically accepted test procedures with representative compounds as follows:
Sprague-Dawley rats (150-200 g) are rendered unconscious by CO2 asphyxiation and then euthanized by cervical dislocation. The bladder is removed into warm (37° C.) physiological salt solution (PSS) of the following composition (mM): NaCl, 118.4; KCl, 4.7; CaCl2, 2.5; […]; NaHCO3, 24.9; KH2 PO4, 1.2; glucose, 11.1; EDTA, 0.023; gassed with 95% O2; […]; pH 7.4 The bladder is opened and then cut into strips 1-2 mm in width and 7-10 mm in length. The strips are subsequently suspended in a 10 mL tissue bath under an initial resting tension of 1.5 g. The strips are held in place by two surgical clips one of which is attached to a fixed hook while the other is attached to an isometric force transducer. […] The carbachol is then washed out and the tissue allowed to relax to its resting level of activity. Following a further 30 min. period of recovery an additional 15 mM KCl are introduced into the tissue bath. This increase in KCl concentration results in a large increase in the amplitude of spontaneous contractions (and initiation of contractions in previously quiescent strips) superimposed upon a small increase in basal tone. Following stabilization of this enhanced level of contractile activity, incremental increases in the concentration of test compound or vehicle are introduced into the tissue bath. Contractile activity is measured for each compound or vehicle concentration during the last minute of a 30 minute challenge.
The isometric force developed by the bladder strips is measured using a […] to elicit 50% inhibition of pre-drug contractile activity (IC50 concentration) and is calculated from this concentration-response curve.

[2] = tested on: hypertrophied bladder (detrussor) smooth muscle; experiment: Inhibition of spontaneous contractions in vivo, hypertrophied rat bladder model; set-up: species or system female Sprague-Dawley rat; settings: 3 mg/kg p.o.; 4 animals; conscious rats
Description: In addition, we tested the ability of compounds to inhibit the hyperactivity of hypertrophied bladder (detrussor) smooth muscle in conscious female rats with hypertrophied bladders and thereby alleviate urinary incontinence in rats according to the following protocol described by Malmgren (A. Malmgren, K. E. Andersson, C. Sjogren, P. O. Andersson, Effects of pinacidil and Cromakalim (BRL 34915) on Bladder Function in Rats with Detrusor Instability, J. Urol. 142:1134, 1989.):
Female Sprague-Dawley rats, ranging in weight from 190-210 g are used. Up to 25 animals are prepared each time. After development of bladder hypertrophy 4-8 animals are used per test.
Compounds are dissolved in PEG-200 and administered by gastric gavage or intraveneously in a volume of 5 ml/kg. For primary screening all drugs are administered at the arbitrary dose of 10 mg/kg p.o. to groups of 4 rats.
The animals are anesthetized with halothane. Through a midline incision the bladder and urethra are exposed and a ligature of 4-0 silk is tied around the proximal urethra in the presence of a stainless steel rod (1 mm diameter) to produce a partial occlusion. The rod is then removed. The abdominal region is closed using surgical staples and each rat receives 150,000 units of bicillin C-R. The animals ar allowed six weeks to develop sufficient bladder hypertrophy. After six weeks, the ligature is removed under halothane anesthesia and a catheter (PE 60) with a cuff is placed in the dome of the bladder and secured with a purse string suture. The catheter is tunneled under the skin and exteriorized through an opening in the back of the neck. The abdominal incision is sutured and the free end of the catheter sealed. In order to prevent infections the rats receive an injection of bicillin C-R (150000 units/rat). Two days later the animals are used in cystometrical evaluations. The animals are placed in the metabolic cages and the catheter is attached (using a "T" connector) to a Statham pressure transducer (Model P23Db) and to a Harvard infusion pump. A plastic beaker attached to a force displacement transducer (Grass FT03) is placed under the rat's cage to collect and record urine volume. Animals are allowed 15-30 min to rest before the saline infusion (20 ml/hr for 20 minutes) is started for the first cystometry period. […]
The following urodynamic variables are recorded: […]
The mean value of each variable is calculated before and after compound administration. For each compound the changes in the variables measured are compared to the values obtained before treatment and expressed as percent inhibition. The data are also subjected to 2-way analysis of variance to determine significant (p<0.05) changes in the variable measured. […]

Compound | IC50 [1] | further results
CC(C)(C)Nc1c(NCc2ccc(F)cc2)c(=O)c1=O [Example 5, 3-tert-Butylamino-4-(4-fluoro-benzylamino)-cyclobut-3-ene-1,2-dione] | 1500 ± 320 nM | 
C[C@@H](Nc1c(NCc2ccc(C(F)(F)F)cc2)c(=O)c1=O)C(C)(C)C [Example 2, (R)-3-(4-trifluoromethyl-benzylamino)-4-(1,2,2-trimethyl-propylamino)-cyclobut-3-ene-1,2-dione] | 6500 ± 1900 nM | 
C[C@@H](Nc1c(NCc2ccccc2F)c(=O)c1=O)C(C)(C)C [Example 15, (R)-3-(2-fluoro-benzylamino)-4-(1,2,2-trimethyl-propylamino) cyclobut-3-ene-1,2-dione] | 1230 ± 220 nM | 
C[C@@H](Nc1c(NCc2ccccc2C(F)(F)F)c(=O)c1=O)C(C)(C)C [Example 14, (R)-3-(2-trifluoromethyl-benzylamino)-4-(1,2,2-trimethyl-propylamino) cyclobut-3-ene-1,2-dione] | 20400 ± 7800 nM | 
CC(C)(C)Nc1c(NCc2ccccc2F)c(=O)c1=O [Example 9, 3-tert-Butylamino-4-(2-fluoro-benzylamino)-cyclobut-3-ene-1,2-dione] | 2080 ± 250 nM | 
C[C@@H](Nc1c(NCc2cccc(OC(F)(F)F)c2)c(=O)c1=O)C(C)(C)C [Example 16, (R)-3-(3-trifluoromethoxy-benzylamino)-4-(1,2,2-trimethyl-propylamino)-cyclobut3-ene-1,2-dione] |  | inhibition at 30 µM [1]: 10%
CCC(C)(C)Nc1c(NCc2ccc(F)cc2)c(=O)c1=O [Example 7, 3-(1,1-Dimethyl-propylamino)-4-(4-fluoro-benzylamino)-cyclobut-3-ene-1,2 dione] | 360 ± 140 nM | % Ampl: Percent change in the amplitude of spontaneous contractions in the hypertrophied rat bladder model [2]: -3 ± 35%; % Red (F): Percent reduction in the total number of spontaneous contractions in the hypertrophied rat bladder model [2]: 67 ± 2%
CC(C)(C)Nc1c(NCc2cccc(C(F)(F)F)c2)c(=O)c1=O [Example 10, 3-tert-Butylamino-4-(3-trifluoromethyl-benzylamino)-cyclobut-3-ene-1,2-dione] | 7900 ± 2700 nM | 
CC(C)(C)Nc1c(NCc2ccc(OC(F)(F)F)cc2)c(=O)c1=O [Example 3, 3-tert-Butylamino-4-(4-trifluoromethoxy-benzylamino)-cyclobut-3-ene-1,2-dione] |  | inhibition at 30 µM [1]: 16.2%
CC(C)(C)Nc1c(NCc2cccc(F)c2)c(=O)c1=O [Example 8, 3-tert-Butylamino-4-(3-fluoro-benzylamino)-cyclobut-3-ene-1,2-dione] | 2400 ± 360 nM | 
C[C@@H](Nc1c(NCc2ccc(F)cc2)c(=O)c1=O)C(C)(C)C [Example 1, (R)-3-(4-Fluoro-benzylamino)-4-(1,2,2-trimethyl-propylamino)-cyclobut-3-ene-1,2-dione] | 760 ± 460 nM | % Ampl: Percent change in the amplitude of spontaneous contractions in the hypertrophied rat bladder model [2]: -64 ± 3%; % Red (F): Percent reduction in the total number of spontaneous contractions in the hypertrophied rat bladder model [2]: 3 ± 25%
CC(C)(C)Nc1c(NCc2ccccc2C(F)(F)F)c(=O)c1=O [Example 11, 3-tert-Butylamino-4-(2-trifluoromethyl-benzylamino)-cyclobut-3-ene-1,2-dione] | 2300 ± 510 nM | 
CC(C)(C)Nc1c(NCc2ccc(C(F)(F)F)cc2)c(=O)c1=O [Example 4, 3-tert-Butylamino-4-(4-trifluoromethyl-benzylamino)-cyclobut-3-ene-1,2-dione] | 6500 ± 870 nM | 
C[C@@H](Nc1c(NCc2ccc(OC(F)(F)F)cc2)c(=O)c1=O)C(C)(C)C [Example 6, (R)-3-(4-trifluoromethoxy-benzylamino)-4-(1,2,2-trimethyl-propylamino)-cyclobut-3-ene-1,2-dione] |  | inhibition at 30 µM [1]: 20.4%
CC(C)(C)Nc1c(NCc2cccc(OC(F)(F)F)c2)c(=O)c1=O [Example 12, 3-tert-Butylamino-4-(3-trifluoromethoxy-benzylamino)-cyclobut-3-ene-1,2-dione] | 13600 ± 3300 nM | 
C[C@@H](Nc1c(NCc2cccc(C(F)(F)F)c2)c(=O)c1=O)C(C)(C)C [Example 13, (R)-3-(3-trifluoromethyl-benzylamino)-4-(1,2,2-trimethyl-propylamino) cyclobut-3-ene-1,2-dione] |  | inhibition at 30 µM [1]: 40.1%

Reference: US5750574A, “Fluorinated N-arylmethylamino derivatives of cyclobutene-3,4-diones” (American Home Products Corporation, priority 1997, dated 1998)
